Source: PMC8645336, “Benchmarking a highly selective USP30 inhibitor for enhancement of mitophagy and pexophagy” (Life Science Alliance, 2021)

Experiments:
Assay in all cases: biochemical
Parameters in all cases: Ubiquigent DUB profiler selectivity panel, remaining enzyme activity as % of control
Details in all cases: read-out: % of control remaining
USP46/UAF1/WDR20 = USP46/UAF1/WDR20 (Homo sapiens, UniProt P62068)
Procedure, shortened: (§1)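 In YFP-PRKN-overexpressing hTERT-RPE1 cells, 1 h antimycin A plus oligomycin A (1 μM each) with CMPD-39, then Western blot of TOMM20 ubiquitylation. Target engagement: 2 h compound, then 10 min HA-Ub-PA at 37°C, read as USP30 shift. DUB panel (>40 enzymes) screened at 1-100 μM.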

USP6 = USP6 (Homo sapiens, UniProt P35125)
USP6, sequence (P35125 whole entry): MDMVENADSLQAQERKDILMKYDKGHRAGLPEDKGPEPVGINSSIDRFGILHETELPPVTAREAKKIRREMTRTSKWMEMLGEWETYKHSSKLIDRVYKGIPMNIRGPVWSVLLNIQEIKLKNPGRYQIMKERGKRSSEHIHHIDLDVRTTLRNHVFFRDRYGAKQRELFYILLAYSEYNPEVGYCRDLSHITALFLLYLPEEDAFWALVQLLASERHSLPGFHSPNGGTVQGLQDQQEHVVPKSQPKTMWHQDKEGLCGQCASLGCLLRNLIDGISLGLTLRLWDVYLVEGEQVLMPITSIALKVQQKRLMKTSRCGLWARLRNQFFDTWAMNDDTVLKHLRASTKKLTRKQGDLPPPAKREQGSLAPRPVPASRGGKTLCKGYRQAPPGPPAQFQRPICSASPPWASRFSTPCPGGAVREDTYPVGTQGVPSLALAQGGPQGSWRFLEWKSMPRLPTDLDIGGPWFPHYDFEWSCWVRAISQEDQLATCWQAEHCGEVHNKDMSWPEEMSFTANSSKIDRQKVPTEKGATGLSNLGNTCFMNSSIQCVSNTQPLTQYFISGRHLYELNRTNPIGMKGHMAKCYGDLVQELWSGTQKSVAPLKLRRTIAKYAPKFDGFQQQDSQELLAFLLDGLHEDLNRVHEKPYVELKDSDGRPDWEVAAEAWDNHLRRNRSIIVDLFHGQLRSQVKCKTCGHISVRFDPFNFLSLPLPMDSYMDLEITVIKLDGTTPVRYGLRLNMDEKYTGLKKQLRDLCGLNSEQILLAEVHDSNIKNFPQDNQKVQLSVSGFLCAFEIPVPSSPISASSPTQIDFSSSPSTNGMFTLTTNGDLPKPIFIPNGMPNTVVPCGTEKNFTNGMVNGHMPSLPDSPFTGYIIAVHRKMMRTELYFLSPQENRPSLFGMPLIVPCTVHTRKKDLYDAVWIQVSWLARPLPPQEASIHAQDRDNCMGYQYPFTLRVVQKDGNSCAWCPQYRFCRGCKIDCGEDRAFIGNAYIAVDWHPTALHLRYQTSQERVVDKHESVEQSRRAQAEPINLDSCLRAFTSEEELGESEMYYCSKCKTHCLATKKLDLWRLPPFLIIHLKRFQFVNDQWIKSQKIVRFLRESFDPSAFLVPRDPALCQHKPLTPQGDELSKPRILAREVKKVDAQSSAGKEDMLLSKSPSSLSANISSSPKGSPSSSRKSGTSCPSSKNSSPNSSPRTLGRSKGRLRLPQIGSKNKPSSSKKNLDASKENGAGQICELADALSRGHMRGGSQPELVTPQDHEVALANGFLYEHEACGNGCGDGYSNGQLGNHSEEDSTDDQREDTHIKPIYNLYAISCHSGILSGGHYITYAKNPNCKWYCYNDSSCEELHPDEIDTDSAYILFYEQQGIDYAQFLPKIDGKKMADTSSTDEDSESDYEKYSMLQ
Procedure, shortened: as §1

VCPIP = target: T1, VCPIP (Homo sapiens, UniProt Q96JH7)
T1 construct: gene VCPIP1
T1 sequence (Q96JH7 1-1222): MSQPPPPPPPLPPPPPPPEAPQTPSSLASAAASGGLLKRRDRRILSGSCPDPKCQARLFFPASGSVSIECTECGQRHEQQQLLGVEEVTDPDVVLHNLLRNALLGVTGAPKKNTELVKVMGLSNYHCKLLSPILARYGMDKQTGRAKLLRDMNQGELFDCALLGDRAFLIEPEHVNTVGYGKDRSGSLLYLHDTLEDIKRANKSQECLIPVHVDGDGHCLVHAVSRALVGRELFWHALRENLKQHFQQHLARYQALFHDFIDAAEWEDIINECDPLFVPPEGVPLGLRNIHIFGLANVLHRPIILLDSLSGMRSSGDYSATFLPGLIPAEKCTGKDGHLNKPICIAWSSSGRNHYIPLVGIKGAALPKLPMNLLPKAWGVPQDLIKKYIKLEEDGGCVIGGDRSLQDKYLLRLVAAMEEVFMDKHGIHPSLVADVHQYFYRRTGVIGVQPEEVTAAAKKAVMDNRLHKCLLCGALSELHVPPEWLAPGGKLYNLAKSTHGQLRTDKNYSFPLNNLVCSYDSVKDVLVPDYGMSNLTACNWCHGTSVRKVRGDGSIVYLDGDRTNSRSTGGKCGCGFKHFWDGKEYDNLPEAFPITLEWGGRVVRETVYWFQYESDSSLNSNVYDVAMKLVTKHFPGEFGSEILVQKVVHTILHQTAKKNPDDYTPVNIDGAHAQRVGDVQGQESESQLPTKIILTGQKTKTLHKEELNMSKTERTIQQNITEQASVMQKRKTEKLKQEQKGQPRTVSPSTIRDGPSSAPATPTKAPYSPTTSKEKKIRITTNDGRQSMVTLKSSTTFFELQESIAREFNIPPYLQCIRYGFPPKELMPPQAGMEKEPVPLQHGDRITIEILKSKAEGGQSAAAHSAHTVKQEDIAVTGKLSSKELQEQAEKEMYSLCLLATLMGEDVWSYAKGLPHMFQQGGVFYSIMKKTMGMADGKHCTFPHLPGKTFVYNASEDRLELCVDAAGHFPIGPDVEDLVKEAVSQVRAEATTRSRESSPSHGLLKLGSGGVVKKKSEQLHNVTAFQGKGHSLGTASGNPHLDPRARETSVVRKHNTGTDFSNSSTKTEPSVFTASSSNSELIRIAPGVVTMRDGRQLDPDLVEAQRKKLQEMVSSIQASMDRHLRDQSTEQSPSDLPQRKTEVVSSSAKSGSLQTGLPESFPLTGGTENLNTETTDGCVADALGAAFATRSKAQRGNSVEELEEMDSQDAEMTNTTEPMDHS
Procedure, shortened: as §1

OTUD1 = target: T2, OTUD1 (Homo sapiens, UniProt Q5VV17)
T2 sequence (Q5VV17 1-481): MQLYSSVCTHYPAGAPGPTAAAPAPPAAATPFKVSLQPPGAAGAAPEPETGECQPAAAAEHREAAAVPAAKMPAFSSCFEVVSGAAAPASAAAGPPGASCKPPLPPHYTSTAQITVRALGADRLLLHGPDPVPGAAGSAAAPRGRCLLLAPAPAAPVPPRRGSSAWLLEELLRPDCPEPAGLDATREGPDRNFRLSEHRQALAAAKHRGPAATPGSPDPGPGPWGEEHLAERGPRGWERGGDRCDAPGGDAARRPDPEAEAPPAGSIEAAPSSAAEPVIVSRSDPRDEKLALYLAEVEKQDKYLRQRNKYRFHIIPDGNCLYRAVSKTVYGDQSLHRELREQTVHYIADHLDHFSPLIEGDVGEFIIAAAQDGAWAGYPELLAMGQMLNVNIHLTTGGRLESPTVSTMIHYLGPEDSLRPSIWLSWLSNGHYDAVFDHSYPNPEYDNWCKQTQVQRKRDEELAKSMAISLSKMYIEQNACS
Procedure, shortened: as §1

USP46/UAF1/WDR20, sequence (P62068 whole entry): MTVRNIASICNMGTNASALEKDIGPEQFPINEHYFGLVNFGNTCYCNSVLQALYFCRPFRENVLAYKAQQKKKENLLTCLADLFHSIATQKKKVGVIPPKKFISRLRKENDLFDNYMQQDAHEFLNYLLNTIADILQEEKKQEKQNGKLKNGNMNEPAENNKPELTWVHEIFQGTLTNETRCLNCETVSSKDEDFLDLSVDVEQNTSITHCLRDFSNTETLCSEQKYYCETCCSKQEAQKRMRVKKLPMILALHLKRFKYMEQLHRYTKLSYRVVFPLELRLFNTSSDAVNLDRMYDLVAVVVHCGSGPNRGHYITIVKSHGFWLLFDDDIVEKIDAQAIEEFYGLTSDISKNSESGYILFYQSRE
USP46/UAF1/WDR20, sequence (Q8TAF3 whole entry partner): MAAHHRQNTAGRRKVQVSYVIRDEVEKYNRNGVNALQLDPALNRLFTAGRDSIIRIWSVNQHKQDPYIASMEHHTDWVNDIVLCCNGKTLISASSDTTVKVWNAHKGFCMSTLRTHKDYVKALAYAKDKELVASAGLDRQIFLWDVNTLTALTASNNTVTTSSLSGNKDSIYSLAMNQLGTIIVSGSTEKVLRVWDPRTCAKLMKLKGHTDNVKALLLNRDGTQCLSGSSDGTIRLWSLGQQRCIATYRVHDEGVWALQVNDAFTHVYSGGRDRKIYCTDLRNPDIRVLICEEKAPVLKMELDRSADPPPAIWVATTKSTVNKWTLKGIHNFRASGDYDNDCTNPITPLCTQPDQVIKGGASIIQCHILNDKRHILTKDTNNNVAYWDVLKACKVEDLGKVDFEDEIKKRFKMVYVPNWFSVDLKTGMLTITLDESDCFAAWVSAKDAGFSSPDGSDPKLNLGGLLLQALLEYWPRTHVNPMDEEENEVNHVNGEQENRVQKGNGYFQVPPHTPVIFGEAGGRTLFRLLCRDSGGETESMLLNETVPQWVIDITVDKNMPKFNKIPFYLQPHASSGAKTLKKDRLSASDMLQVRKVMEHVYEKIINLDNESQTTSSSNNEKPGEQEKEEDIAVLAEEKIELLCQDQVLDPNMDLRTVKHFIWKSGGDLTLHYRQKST
USP46/UAF1/WDR20, sequence (Q8TBZ3 whole entry partner): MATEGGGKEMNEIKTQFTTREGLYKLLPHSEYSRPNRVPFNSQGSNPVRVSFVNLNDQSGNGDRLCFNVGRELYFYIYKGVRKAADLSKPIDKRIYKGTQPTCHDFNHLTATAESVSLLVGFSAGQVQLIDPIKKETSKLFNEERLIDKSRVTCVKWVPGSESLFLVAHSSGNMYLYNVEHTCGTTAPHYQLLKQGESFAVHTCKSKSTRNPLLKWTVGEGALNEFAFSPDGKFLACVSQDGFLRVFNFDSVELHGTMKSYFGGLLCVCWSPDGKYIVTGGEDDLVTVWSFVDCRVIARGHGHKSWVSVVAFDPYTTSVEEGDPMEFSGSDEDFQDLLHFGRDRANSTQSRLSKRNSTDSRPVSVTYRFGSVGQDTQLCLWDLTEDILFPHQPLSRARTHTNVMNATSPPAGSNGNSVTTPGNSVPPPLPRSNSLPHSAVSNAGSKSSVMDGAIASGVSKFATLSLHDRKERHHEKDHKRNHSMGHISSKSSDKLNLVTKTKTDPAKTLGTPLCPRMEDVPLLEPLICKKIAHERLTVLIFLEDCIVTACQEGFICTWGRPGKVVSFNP

Compound CC(C)(C)NS(=O)(=O)c1ccc(NC(=O)[C@H](Cc2ccccc2)NC(=O)c2ccc(F)cc2)cc1 [compound 39, CMPD-39] has a remaining activity at 1 µM (USP46/UAF1/WDR20) of 110%, a remaining activity at 10 µM (USP46/UAF1/WDR20) of 97.5% and a remaining activity at 100 µM (USP46/UAF1/WDR20) of 97.4%. The remaining activity at 1 µM (USP6) was 101%, the remaining activity at 10 µM (USP6) was 96.8% and the remaining activity at 100 µM (USP6) was 90.6%. The remaining activity at 1 µM (VCPIP) was 109%, the remaining activity at 10 µM (VCPIP) was 96.5% and the remaining activity at 100 µM (VCPIP) was 95.6%. The remaining activity at 1 µM (OTUD1) was 99.9%, the remaining activity at 10 µM (OTUD1) was 93.4% and the remaining activity at 100 µM (OTUD1) was 98%.
